Experiment: Stability of polymorph Form II of the besylate salt
Assay type: physicochemical
Conditions: exemplary Form II polymorph, solid form
Description: In some embodiments, Form II of the besylate salt of compound 101 (2,4-Dichloro-N-[3,5-dichloro-4-(quinolin-3-yloxy)-phenyl]-benzenesulfonamide benzenesulfonate salt) is used. […] In some embodiments, the Form II polymorph can have a melting point between about 230 and 240° C. […] For example, particular Form II polymorphs can have major X-ray powder diffraction pattern peaks at 15, 19, 20.5, 23.5, 24.5, 25, 26.5, 29.5 and 30.5° 2θ using Cu Kα radiation. In certain embodiments, the Form II polymorph can have major X-ray powder diffraction pattern peaks at one, two, three, four, five, six, seven or eight of the X-ray powder diffraction pattern peaks at 15, 19, 20.5, 23.5, 24.5, 25, 26.5, 29.5 and 30.5° 2θ using Cu Kα radiation. In certain embodiments, the Form II polymorph of the invention can have both a melting point between about 230 and 240° C. and major X-ray powder diffraction pattern peaks at one, two, three, four, five, six, seven or eight of the X-ray powder diffraction pattern peaks at 15, 19, 20.5, 23.5, 24.5, 25, 26.5, 29.5 and 30.5° 2θ using Cu Kα radiation. In further embodiments, the Form II polymorph can have major infrared absorbance peaks at one, two, three, four, or five of the infrared absorbance peaks at 1573, 1469, 1459, 912, and 859 cm^−1.

stability of the polymorph: surprising stability
SMILES: O=S(=O)(Nc1cc(Cl)c(Oc2cnc3ccccc3c2)c(Cl)c1)c1ccc(Cl)cc1Cl.O=S(=O)(O)c1ccccc1 [2,4-Dichloro-N-[3,5-dichloro-4-(quinolin-3-yloxy)-phenyl]-benzenesulfonamide benzenesulfonate salt]
